Three molecules from ChEMBL document CHEMBL1128926, “The synthesis of a hematoregulatory agent based on HP-5B containing an effective, achiral cystine replacement” (1996) can be followed below.

Positions of bridges follow the written chain, without caps; N, C: chain ends. Non-standard residues stand in square brackets, D forms with d. Residues, ends and D or L forms follow the SMILES beside them. Chains are numbered I, II in the order given. pGlu = O=C1CC[C@@H](C(=O)O)N1

The nature of this test: Compound was evaluated for the production of HSF activity from C6.4 stromal cells using a murine CFU-GM assay. The format is functional, Mus musculus.
On to `NCCCC[C@H](NC(=O)CN(CCCCN(CC(=O)N[C@@H](CCCCN)C(=O)O)C(=O)[C@H](CC(=O)O)NC(=O)[C@H](CCC(=O)O)NC(=O)[C@@H]1CCC(=O)N1)C(=O)[C@H](CC(=O)O)NC(=O)[C@H](CCC(=O)O)NC(=O)[C@@H]1CCC(=O)N1)C(=O)O`, for which the “HSF activity x10e2” value came to 21700 ml.

Turning to `NCCCC[C@H](NC(=O)[C@H](CCCC[C@H](NC(=O)[C@H](CC(=O)O)NC(=O)[C@H](CCC(=O)O)NC(=O)[C@@H]1CCC(=O)N1)C(=O)N[C@@H](CCCCN)C(=O)O)NC(=O)[C@H](CC(=O)O)NC(=O)[C@H](CCC(=O)O)NC(=O)[C@@H]1CCC(=O)N1)C(=O)O` [GLASPIMOD], the “HSF activity x10e2” value turned out to be 14300 ml.

Regarding `NCCCC[C@H](NC(=O)[C@H](CSSC[C@H](NC(=O)[C@H](CC(=O)O)NC(=O)[C@H](CCC(=O)O)NC(=O)[C@@H]1CCC(=O)N1)C(=O)N[C@@H](CCCCN)C(=O)O)NC(=O)[C@H](CC(=O)O)NC(=O)[C@H](CCC(=O)O)NC(=O)[C@@H]1CCC(=O)N1)C(=O)O` (I: [pGlu]EDCK-OH / II: [pGlu]EDCK-OH; disulfide I:4-II:4), the “HSF activity x10e2” value came to 700 ml.
